Results: patent US20140248635A1, “ALPHA-TUBULIN […]” (University of Georgia Research Foundation, Inc., priority 2010, published 2014)

What was measured:
GST-MmMEC-17 = assay: In vitro tubulin acetyltransferase assay: effect of added agents on MEC-17 activity; assay type: biochemical, murine; settings: purified MEC17-KO tubulin or axonemes, acetyl-CoA
Excerpt: To disrupt the MEC-17 gene in Tetrahymena, we used homologous DNA recombination with a fragment carrying the neo4 marker that replaced the coding region. MEC-17 was overexpressed in Tetrahymena using the MTT1 cadmium-dependent promoter. In C. elegans, MEC-12-K40, MEC-12-Q40, and MEC-12-R40 transgenes were introduced into a single site on chromosome II in the EG4322 strain. Animals homozygous for a MEC-12 transgene and homozygous for the mec-12(e1607) allele were obtained by standard crosses. All touch sensation assays in C. elegans were done using blind scoring. To deplete human MEC-17 (C6Orf134) mRNA in Hela cells, we introduced MEC-17-specific siRNAs (ON-TARGETplus pool, Dharmacon) using Oligofectamine (Invitrogen). To knockdown mec17 expression in zebrafish, MOs designed to target the MEC-17 mRNA (Open Biosystems) were injected into early embryos. ATG-MEC17 MO targets the translation initiation site of mec17 mRNA. SP-MEC17 MO targets the exon3/intron3-4 splice junction, and is expected to result in an aberrant splicing isoform of exon2 to exon 4, producing a frameshift mutation and associated protein truncation. As a negative control, we injected MO with a random sequence (oligo-25N, Gene Tools) or a 5 bp mismatch to the ATG-MEC17 MO. Live embryos were scored for phenotypes at 48 hpf. […] The reaction was detected by western blotting using anti-acetyl-K antibodies. […]

[1] = system: MEC-17-KO Tetrahymena cells; assay: Response of Tetrahymena strains to microtubule drugs (growth, axonemes); assay type: cell-based; settings: MEC-17-KO vs wild type
Description: Cells were suspended at 10^5 cell/ml in SPP medium and incubated with the drug for 22 hr at 30° C. and the cell density was determined.

HDAC6 = target: T1, HDAC6 (Homo sapiens, UniProt Q9UBN7); settings: cited from earlier work
T1 sequence (Q9UBN7 1-1215): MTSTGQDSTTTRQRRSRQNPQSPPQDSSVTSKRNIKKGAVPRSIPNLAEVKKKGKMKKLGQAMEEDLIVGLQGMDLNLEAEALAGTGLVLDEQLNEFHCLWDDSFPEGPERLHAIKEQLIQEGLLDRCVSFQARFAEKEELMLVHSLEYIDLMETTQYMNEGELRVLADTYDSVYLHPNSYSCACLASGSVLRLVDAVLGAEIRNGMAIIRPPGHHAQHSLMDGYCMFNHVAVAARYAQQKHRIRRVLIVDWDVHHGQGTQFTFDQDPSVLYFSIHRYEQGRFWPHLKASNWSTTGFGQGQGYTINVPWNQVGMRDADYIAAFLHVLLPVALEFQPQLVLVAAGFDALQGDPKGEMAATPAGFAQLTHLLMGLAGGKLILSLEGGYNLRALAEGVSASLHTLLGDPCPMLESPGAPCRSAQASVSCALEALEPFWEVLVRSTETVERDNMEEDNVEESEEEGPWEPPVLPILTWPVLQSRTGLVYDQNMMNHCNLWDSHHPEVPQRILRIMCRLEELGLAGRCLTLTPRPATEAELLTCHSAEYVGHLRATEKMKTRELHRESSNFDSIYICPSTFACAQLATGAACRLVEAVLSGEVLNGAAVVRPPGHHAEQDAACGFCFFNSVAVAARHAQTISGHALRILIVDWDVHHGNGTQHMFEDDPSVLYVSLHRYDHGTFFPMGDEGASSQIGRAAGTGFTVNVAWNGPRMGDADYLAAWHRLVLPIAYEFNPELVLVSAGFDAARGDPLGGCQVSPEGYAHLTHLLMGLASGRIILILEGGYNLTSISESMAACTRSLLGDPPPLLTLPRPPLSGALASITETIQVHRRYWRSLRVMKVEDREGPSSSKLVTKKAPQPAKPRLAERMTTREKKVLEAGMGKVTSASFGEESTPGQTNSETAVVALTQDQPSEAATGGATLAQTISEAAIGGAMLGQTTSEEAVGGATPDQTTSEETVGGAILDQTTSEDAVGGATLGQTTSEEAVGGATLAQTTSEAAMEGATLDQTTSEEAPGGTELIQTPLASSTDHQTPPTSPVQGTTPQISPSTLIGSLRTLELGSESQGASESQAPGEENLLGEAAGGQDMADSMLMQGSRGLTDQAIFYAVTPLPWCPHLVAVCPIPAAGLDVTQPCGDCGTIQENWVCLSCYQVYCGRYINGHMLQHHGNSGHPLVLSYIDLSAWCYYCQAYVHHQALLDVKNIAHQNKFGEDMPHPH

zebrafish embryos = assay: Phenotypes of live zebrafish embryos at 48 hpf after morpholino injection; assay type: in vivo
Excerpt: To disrupt the MEC-17 gene in Tetrahymena, we used homologous DNA recombination with a fragment carrying the neo4 marker that replaced the coding region. MEC-17 was overexpressed in Tetrahymena using the MTT1 cadmium-dependent promoter. In C. elegans, MEC-12-K40, MEC-12-Q40, and MEC-12-R40 transgenes were introduced into a single site on chromosome II in the EG4322 strain. Animals homozygous for a MEC-12 transgene and homozygous for the mec-12(e1607) allele were obtained by standard crosses. All touch sensation assays in C. elegans were done using blind scoring. To deplete human MEC-17 (C6Orf134) mRNA in Hela cells, we introduced MEC-17-specific siRNAs (ON-TARGETplus pool, Dharmacon) using Oligofectamine (Invitrogen). To knockdown mec17 expression in zebrafish, MOs designed to target the MEC-17 mRNA (Open Biosystems) were injected into early embryos. ATG-MEC17 MO targets the translation initiation site of mec17 mRNA. SP-MEC17 MO targets the exon3/intron3-4 splice junction, and is expected to result in an aberrant splicing isoform of exon2 to exon 4, producing a frameshift mutation and associated protein truncation. As a negative control, we injected MO with a random sequence (oligo-25N, Gene Tools) or a 5 bp mismatch to the ATG-MEC17 MO. Live embryos were scored for phenotypes at 48 hpf. To produce a recombinant MEC-17 protein, the cDNA sequence of the murine MEC-17 (BF135007, Open Biosystems) was subcloned into pGEX-3× plasmid (GE Healthcare), expressed in BL21 E. coli cells as a GST fusion and purified using GST-Bind kit (Novagen). The in vitro acetylation assays were performed in 50 mM Tris-HCl pH 8.0, […], 0.1 mM EDTA, with purified Tetrahymena MEC-17-KO axonemes or tubulin (purified using DEAE chromatography), recombinant GST-MmMEC-17 enzyme and 10 μM acetyl-CoA. The reaction was detected by western blotting using anti-acetyl-K antibodies.
ATG-MEC17 targets the translation initiation site of MEC-17 mRNA. SP-MEC17 MO targets the exon3/intron3-4 splice junction, and is expected to result in an aberrantly spliced isoform in which exon2 is joined to exon 4. The predicted transcript contains a frameshift mutation and encodes a nonsense protein. As a negative control we injected MO with a random sequence (oligo-25N, Gene Tools) or a 5 bp mismatch to the ATG-MEC17 MO (5′-CATTgAcGTCcTAAGGcAAATgCAT-3′; SEQ ID NO:9). Live embryos were scored for phenotypes at 48 hpf, or fixed processed for immunofluorescence as described (Wloga et al., 2009 Dev Cell 16:867-876). The antibodies were used in the following concentrations: 6-11 B-1 mAb (1:1000), Znp-1 anti-synaptotagmin 1 mAb (1:100). After incubation with secondary antibodies (Zymed) overnight at 4° C. (1:500) embryos were mounted in 100 mg/ml of DABCO (Sigma-Aldrich) in PBS and viewed in a Leica TCS SP confocal microscope. Live zebrafish morphants shown in videos S1-S3 were recorded using on the Zeiss Stemi SV11 Apo microscope and a SPOT FLEX camera (Diagnostic Instruments Inc.) at 12 frames per second.

mec17 mRNA = assay: RT-PCR of mec17 mRNA in morpholino-injected embryos; assay type: in vivo, zebrafish; settings: RT-PCR exon 1 to exon 5
Description: Total cDNA was made using randomly-primed mRNA isolated from either control (WT) or embryos injected with 5 bp mismatch MO (MIS), ATG-MO (ATG), or splice-site MO (SP), and amplified using either primers corresponding to the coding sequence of the β-actin gene (top panel) or primers that correspond to the sequence of mec17 between exon 1 and exon 5 (bottom panel). As controls, amplifications were performed on samples that lacked reverse transcriptase (−RT). Note that the β-actin gene primers gave a robust product of the expected size (100 bp) for all +RT samples (top).
For RT-PCR, mRNA was isolated from 70 embryos 24 hpf using TRIzol reagent (Invitrogen, Carslbad, Calif.), and total cDNA was synthesized using iScript cDNA synthesis kit (Bio-Rad Laboratories, Hercules, Calif.). The sequences of primers used to amplify the mec17 cDNA were: MEC17EX1F 5′-[…]-3′ (SEQ ID NO:10) and MEC17EX5R2 5′-[…]-3′ (SEQ ID NO:11). The forward primer binds to exon 1 and the reverse primer binds to exon 5 (the splice blocking morpholino binds to the junction between exon 3 and the intron 3-4). For the control amplification of β-actin cDNA, we used the following primers: 5′-[…]-3′ (SEQ ID NO:12) and 5′-[…]-3′ (SEQ ID NO:13).

Compound | effect on MEC-17 acetylation activity (GST-MmMEC-17) | Edema of the heart (frequency of phenotype) (zebrafish embryos; Table 2, 1 ng MO, 48 hpf) | Hydrocephaly (frequency of phenotype) (zebrafish embryos; Table 2, 1 ng MO, 48 hpf) | Lethality (frequency of phenotype) (zebrafish embryos; Table 2, 1 ng MO, 48 hpf) | Mobility: reduced mobility (zebrafish embryos; Table 2, 1 ng MO, 48 hpf) | Short body axis (frequency of phenotype) (zebrafish embryos; Table 2, 1 ng MO, 48 hpf) | Small head/eyes: small eyes (zebrafish embryos; Table 2, 1 ng MO, 48 hpf) | Small head/eyes: small heads (zebrafish embryos; Table 2, 1 ng MO, 48 hpf) | Edema of the heart (frequency of phenotype) (zebrafish embryos; Table 1, 1 ng MO, 48 hpf) | Hydrocephaly (frequency of phenotype) (zebrafish embryos; Table 1, 1 ng MO, 48 hpf) | Lethality (frequency of phenotype) (zebrafish embryos; Table 1, 1 ng MO, 48 hpf) | Paralyzed (frequency of phenotype) (zebrafish embryos; Table 1, 1 ng MO, 48 hpf) | Reduced mobility (frequency of phenotype) (zebrafish embryos; Table 1, 1 ng MO, 48 hpf) | Short body axis (frequency of phenotype) (zebrafish embryos; Table 1, 1 ng MO, 48 hpf) | Small head/eyes (frequency of phenotype) (zebrafish embryos; Table 1, 1 ng MO, 48 hpf) | also measured
Nc1nc2c(ncn2[C@@H]2O[C@H](COP(=O)(O)OP(=O)(O)OP(=O)(O)O)[C@@H](O)[C@H]2O)c(=O)[nH]1 [GTP] | stimulated | – | – | – | – | – | – | – | – | – | – | – | – | – | – | –
CC(=O)O[C@H]1C(=O)[C@@]2(C)[C@H]([C@H](OC(=O)c3ccccc3)[C@]3(O)C[C@H](OC(=O)[C@H](O)[C@@H](NC(=O)c4ccccc4)c4ccccc4)C(C)=C1C3(C)C)[C@]1(OC(C)=O)CO[C@@H]1C[C@@H]2O [Paclitaxel, paclitaxel, reference compound] | stimulated | – | – | – | – | – | – | – | – | – | – | – | – | – | – | growth of MEC-17-KO cells in medium with drug, compared with wild type [1]: grew faster than wild-type cells
O=C(CCCCCCC(=O)Nc1ccc([C@H]2O[C@@H](CSc3nc(-c4ccccc4)c(-c4ccccc4)o3)C[C@@H](c3ccc(CO)cc3)O2)cc1)NO [tubacin] | – | – | – | – | – | – | – | – | – | – | – | – | – | – | – | inhibition of HDAC6 (HDAC6): a specific inhibitor
ATG MIS MO: negative control MO, 5 bp mismatch to the ATG-MEC17 MO, 5′-CATTgAcGTCcTAAGGcAAATgCAT-3′ (SEQ ID NO:9) (CATTGACGTCCTAAGGCAAATGCAT; all phosphorodiamidate morpholino (PMO)) [reference compound] | – | 3.8% | 0% | 2.5% | 2.5% reduced mobility | 5.1% | 1.2% small eyes | 6.4% small heads | – | – | – | – | – | – | – | gross embryo phenotype / developmental defects (zebrafish embryos; injected embryos): appeared normal
MEC-17 ATG MO: morpholino 5′-CATTCAGGTCGTAAGGGAAATCCAT-3′ (SEQ ID NO:7); targets the translation initiation site of MEC-17 mRNA (all phosphorodiamidate morpholino (PMO)) | – | 7.9% | 13.8% | 3.7% | 17.5% reduced mobility | 27.1% | 74.4% small eyes | 79.2% small heads | 15.4% | 15% | 7% | 15.4% | 41.6% | 35.7% | 28.5% | Mobility: paralyzed (zebrafish embryos; Table 2, 1 ng MO, 48 hpf): 10.1% paralyzed
MEC-17 SP MP: morpholino 5′-AGAGAAAGCTATTTTACCCGTTCTG-3′ (SEQ ID NO:8); targets the exon3/intron3-4 splice junction of mec17 (all phosphorodiamidate morpholino (PMO)) | – | – | – | – | – | – | – | – | 13.2% | 33% | 28% | 15% | 23.5% | 41.5% | 47.1% | levels of mec17 mRNA (mec17 mRNA): severe reduction
